Source: US8802630B2, “Method of treating brain injury” (Buddhist Tzu Chi General Hospital, priority 2011, dated 2014)
Where no end group is shown, it is not given here.

Test system: microglial cells
Test: Immunohistochemistry of microglial activation (OX-42, ED-1)
Assay type: in vivo, rats
Settings: perihematomal region; L-UCN 2.5 μg/kg i.p.; day 3 post-ICH
Protocol: Rats were used in immunohistochemistry on day 3 post-ICH. Rats were anesthetized as described above and transcardially perfused with cold 0.1 M phosphate buffer saline followed by cold 4% paraformaldehyde in 0.1 M phosphate-buffered saline. Brains were removed and immersed in 4% paraformaldehyde for 24 hours and 30% sucrose for another 24 hours. Coronal brain sections (20 μm thickness) were cut and collected from 0.0 to −2.0 mm AP to bregma using a cryostat (Leica CM 1900). Three 20 μm coronal sections, representing the core of the hematoma, were taken starting at 0.0 mm from bregma (the needle entry site). Additional adjacent serial coronal sections taken through the center of the hemorrhagic lesion were processed for the counting of marker-specific cells (Jung et al., 2004). Antibodies of OX-42 (1:100; BD, USA), ED-1 (1:100; BD, USA) were used as microglial markers, and NeuN (1:200, Chemicon, USA) was used as neuron marker. Tissues sections were incubated with the primary antibodies overnight at 4° C. […] The numbers of positive cells in the same focal plane were counted in 6 regions of interest around the ipsilateral striatum (perihematomal region, 1 mm^2) All cell counting was done by an independent investigator counted the positive cells.

urocortin (DNPSLSIDLTFHLLRTLLELARTQSQRERAEQNRIIFDSV; ends and bridges not checked; UniProt P55089 83-122, looked up) [UCN, a 40-amino-acid endogenous neuropeptide, belongs to the corticotrophin releasing hormone (CRH) family]
number of ED-1+ cells: 28.50±2.65 cells/6 mm^2
number of OX-42+ microglial cells: 82.00±22.86 cells/6 mm^2
